Earlier results as cited in US20140053594A1, “THERMALLY ACTIVATED PRESSURE BOOSTER FOR HEAT PUMPING AND POWER GENERATION” (priority 2011, published 2014).

Columns and labels:
RBT = details: intraperitoneal, rabbit
rat [1] = details: oral
rat [2] = details: intravenous
rat [3] = details: intraperitoneal
rat [4] = tested on: rat

Row | Structure (SMILES) | IPR-RBT LD50 (RBT) | ORL-RAT LD50 (rat [1]) | IVN-RAT LD50 (rat [2]) [mg/kg] | IPR-RAT LD50 (rat [3]) [mg/kg] | Acute oral toxicity (LD50) (Mouse) | Acute dermal toxicity (LD50) (rat [4])
1 | CN(C)C=O [DMF, dimethylformamide] | LD50 1000 mg kg^−1 | ORL-RAT LD50 2800 mg kg^−1 | 2000 | 1400 | – | –
2 | C[S+](C)[O-] [DMSO, dimethyl sulfoxide] | – | – | – | – | 7920 mg/kg [Mouse] | 40000 mg/kg [Rat]
